Laboratory results from US12297179B2, “Crystalline and salt forms of an organic compound and pharmaceutical compositions thereof” (Servier Pharmaceuticals LLC, priority 2018, dated 2025).
In brackets after ≈: the same amount, converted by molar mass. Counter-ions that a name gives are not always drawn. Like-named read-outs stand apart in the source and are kept apart here.

Tests used:
Assay type in all cases: physicochemical
[1] = Thermodynamic stability: slurry competition between Tris salt Forms A and C; settings: DMSO/EtOH (1:8, v/v) and EtOH, 5° C./RT/50° C./75° C., 7 days
Method: The thermodynamic stability relationship between Tris salt Forms A and C was investigated via slurry competition experiments in 2 process related solvent systems, DMSO/EtOH (1:8, v/v) and EtOH at 4 temperature conditions (5° C./RT/50° C./75° C.). Two stages of slurry competition experiments were conducted, of which the first stage included temperature as a variable and the second stage used newly opened reagents to minimize the effect of absorbed moisture. Typical experimental procedures are described below.
About 5-10 mg of crystalline Tris salt Form C was first dissolved in ˜1.0 mL of corresponding solvent to form nearly saturated solution under corresponding temperature (equilibrating method: stirring magnetically, ˜1000 rpm, ˜2 hrs). Then ˜15 mg of each form (crystalline Tris salt Forms A and C) was physically mixed, followed by addition of the nearly saturated solution to form a suspension. The suspensions were then stirred (˜1000 rpm) under corresponding temperature for 7 days (a small amount of solids were sampled at 2 day point in the second stage experiments). The obtained solids were isolated via centrifugation (10000 rpm, 2 mins) and tested by XRPD to confirm the form.

[2] = Kinetic solubility in bio-relevant media (SGF/FaSSGF, FaSSIF, FeSSIF) and H2O at 37° C., with pH of supernatant; settings: for Solubility: 37° C.; for pH: supernatant
Method: (§1) Weigh 100 mg of sodium chloride into a 50-mL volumetric flask. Add appropriate volume of purified water and sonicate until all solids are completely dissolved. Add sufficient purified water closely to the target volume and adjust to pH 1.6. Weigh 3 mg of FaSSIF/FeSSIF/FaSSGF powder into the volumetric flask and sonicate until the powder is completely dissolved. Dilute to target volume with purified water and mix well.
as §1, with “0.170 g of monobasic sodium phosphate, 0.021 g of sodium hydroxide and 0.31 g” for “100 mg”, “6.5.” for “1.6.”, “110” for “3”
as §1, with “0.41 mL of glacial acetic acid, 0.202 g of sodium hydroxide and 0.594 g” for “100 mg”, “5.0.” for “1.6.”, “560” for “3”
An Agilent 1260 HPLC with DAD detector was utilized and detailed chromatographic conditions for solubility analysis are listed in Table 5.
Kinetic solubility of Tris salt Form A and free acid Form D were measured in three bio-relevant media (SGF, FaSSIF and FeSSIF) at 37° C. In details, ˜30 mg solids were suspended into 4.0 mL of each medium initially and equilibrated via shaking (500 rpm) at 37° C. Approximately 0.8 mL suspension was extracted at each time point of 15/30/60/120 mins and 24 hrs. The supernatant and precipitate were separated by centrifugation (10000 rpm, ˜3 mins) followed by concentration (HPLC) and pH measurement for supernatant and the corresponding solid forms were characterized by XRPD.
Due to the thermodynamic stability of Tris salt Form C, further evaluation was conducted, including kinetic solubility in three bio-relevant media (FaSSGF/FaSSF/FeSSIF) and H2O at 37° C.

[3] = Hygroscopicity by dynamic vapor sorption (DVS); settings: DVS, humidity varied from 0% RH to 80% RH at 25° C.
Method: DVS was measured via a SMS (Surface Measurement Systems) DVS Intrinsic. The relative humidity at 25° C. was calibrated against deliquescence point of LiCl, Mg(NO3)2 and KCl.

[4] = Thermodynamic stability study: slurry competition among free acid Form A/B/C/D; settings: 50° C. and 70° C.
Method: To investigate and compare the thermodynamic stability among the identified four crystalline forms of Compound 1 (free acid Form A/B/C/D), two stages of slurry competition experiments were conducted, of which the first one was to study the anhydrous solvent systems and the second stage was solvent systems with different water activities (aw).
In the first stage, ˜2 mg of each solid form (free acid Form A/B/C/D) was physically mixed first, followed by addition of 0.5 mL solvent to form suspension. At various slurrying conditions, a small amount of solid was isolated after ˜7 days for XRPD test.
To further explore any impact of water content on the conversion relationship, six conditions with different water activities and temperatures were applied. Approximately 2 mg of each solid form (free acid Form A/B/C/D) was mixed and suspended in 1.0 mL corresponding solvent systems. After slurry for ˜1 month, the solids were isolated for XRPD test.

[5] = FaSSIF (blank pH 6.5), 120 mins
[6] = FeSSIF (blank pH 5.0), 120 mins
[7] = anhydrous solvent systems, slurry at RT, ~7 days
[8] = solvent mixtures with different water activities (aw: 0~1), RT, ~1 month

Structure (SMILES): Cc1ccccc1-c1ccc(-c2cc(C(=O)O)c3c(c2)nnn3C)cc1 [Tris salt Form A]
- form after slurry competition (XRPD), thermodynamic stability [1]: converted to Tris salt Form C
- Solubility ([2]; FaSSIF, 15 mins): 490 µg/mL
- Solubility ([2]; FaSSIF, 30 mins): 260 µg/mL
- Solubility ([2]; FaSSIF, 60 mins): 200 µg/mL
- Solubility ([2]; FaSSIF, 120 mins): 170 µg/mL
- Solubility ([2]; FaSSIF, 24 hrs): 130 µg/mL
- Solubility ([2]; FeSSIF, 15 mins): 160 µg/mL
- Solubility ([2]; FeSSIF, 30 mins): 200 µg/mL
- Solubility ([2]; FeSSIF, 60 mins): 290 µg/mL
- Solubility ([2]; FeSSIF, 120 mins): 81 µg/mL
- Solubility ([2]; FeSSIF, 24 hrs): 120 µg/mL
- Solubility ([2]; SGF, 15 mins): 60 µg/mL
- Solubility ([2]; SGF, 30 mins): 94 µg/mL
- Solubility ([2]; SGF, 60 mins): 100 µg/mL
- Solubility ([2]; SGF, 24 hrs): 110 µg/mL
- solubility at 24 h ([2]; SGF, FaSSIF and FeSSIF, 37 °C, fassgf or other biorelevant, thermodynamic from solid, all SGF/FaSSIF/FeSSIF media, at 24 hours point): > 100 µg/mL
- pH ([2]; FaSSIF (blank pH 6.5), 15 mins): 7.5
- pH ([2]; FaSSIF (blank pH 6.5), 30 mins): 7.5
- pH ([2]; FaSSIF (blank pH 6.5), 60 mins): 7.5
- pH [2, 5]: 7.5
- pH ([2]; FaSSIF (blank pH 6.5), 24 hrs): 7.5
- pH ([2]; FeSSIF (blank pH 5.0), 15 mins): 5.4
- pH ([2]; FeSSIF (blank pH 5.0), 30 mins): 5.5
- pH ([2]; FeSSIF (blank pH 5.0), 60 mins): 5.5
- pH [2, 6]: 5.5
- pH ([2]; FeSSIF (blank pH 5.0), 24 hrs): 5.5
- pH ([2]; SGF (blank pH 1.8), 15 mins): 6.6
- pH ([2]; SGF (blank pH 1.8), 30 mins): 7.2
- pH ([2]; SGF (blank pH 1.8), 60 mins): 7.3
- pH ([2]; SGF (blank pH 1.8), 120 mins): 7.4
- pH ([2]; SGF (blank pH 1.8), 24 hrs): 7.4
- moisture uptake [3]: ~5 wt %

Structure (SMILES): Cc1ccccc1-c1ccc(-c2cc(C(=O)O)c3c(c2)nnn3C)cc1 [free acid Form A]
- form after slurry competition (XRPD), thermodynamic stability [4, 7]: converted to Form D
- form after slurry competition (XRPD), thermodynamic stability [4, 8]: converted to Form D

Structure (SMILES): Cc1ccccc1-c1ccc(-c2cc(C(=O)O)c3c(c2)nnn3C)cc1 [free acid Form B]
- form after slurry competition (XRPD), thermodynamic stability [4, 7]: converted to Form D
- form after slurry competition (XRPD), thermodynamic stability [4, 8]: converted to Form D

Structure (SMILES): Cc1ccccc1-c1ccc(-c2cc(C(=O)O)c3c(c2)nnn3C)cc1 [free acid Form C]
- form after slurry competition (XRPD), thermodynamic stability [4, 7]: converted to Form D
- form after slurry competition (XRPD), thermodynamic stability [4, 8]: converted to Form D

Structure (SMILES): Cc1ccccc1-c1ccc(-c2cc(C(=O)O)c3c(c2)nnn3C)cc1 [free acid Form D]
- form after slurry competition (XRPD), thermodynamic stability [4, 7]: more stable than Form A/B/C
- form after slurry competition (XRPD), thermodynamic stability [4, 8]: more stable than Form A/B/C
- Solubility ([2]; FaSSIF and FeSSIF, 37 °C, fassgf or other biorelevant, thermodynamic from solid, in FaSSIF and FeSSIF, read-out: solubility): 3 to 8 µg/mL (≈ 8.74 to 23.3 µM)
- Solubility ([2]; FaSSIF, 15 mins): 3.8 µg/mL (≈ 11.1 µM)
- Solubility ([2]; FaSSIF, 30 mins): 4.3 µg/mL (≈ 12.5 µM)
- Solubility ([2]; FaSSIF, 60 mins): 4.8 µg/mL (≈ 14 µM)
- Solubility ([2]; FaSSIF, 120 mins): 5.0 µg/mL (≈ 14.6 µM)
- Solubility ([2]; FaSSIF, 24 hrs): 4.8 µg/mL (≈ 14 µM)
- Solubility ([2]; FeSSIF, 15 mins): 5.6 µg/mL (≈ 16.3 µM)
- Solubility ([2]; FeSSIF, 30 mins): 7.3 µg/mL (≈ 21.3 µM)
- Solubility ([2]; FeSSIF, 60 mins): 5.9 µg/mL (≈ 17.2 µM)
- Solubility ([2]; FeSSIF, 120 mins): 7.7 µg/mL (≈ 22.4 µM)
- Solubility ([2]; FeSSIF, 24 hrs): 6.4 µg/mL (≈ 18.6 µM)
- Solubility ([2]; SGF, 30 mins): 0.11 µg/mL (≈ 0.32 µM)
- Solubility ([2]; SGF, 60 mins): 0.14 µg/mL (≈ 0.408 µM)
- Solubility ([2]; SGF, 24 hrs): 0.18 µg/mL (≈ 0.524 µM)
- solubility at 120 min ([2]; SGF, 37 °C, pH 1.6, fassgf or other biorelevant, thermodynamic from solid, 120 mins): 0.13 µg/mL (≈ 0.379 µM)
- Solubility ([2]; SGF, 37 °C, pH 1.6, fassgf or other biorelevant, thermodynamic from solid, in SGF, read-out: solubility): < 1 µg/mL
- pH ([2]; FaSSIF (blank pH 6.5), 15 mins): 6.4
- pH ([2]; FaSSIF (blank pH 6.5), 30 mins): 6.5
- pH ([2]; FaSSIF (blank pH 6.5), 60 mins): 6.5
- pH [2, 5]: 6.5
- pH ([2]; FaSSIF (blank pH 6.5), 24 hrs): 6.4
- pH ([2]; FeSSIF (blank pH 5.0), 15 mins): 5.0
- pH ([2]; FeSSIF (blank pH 5.0), 30 mins): 5.0
- pH ([2]; FeSSIF (blank pH 5.0), 60 mins): 5.0
- pH [2, 6]: 5.0
- pH ([2]; FeSSIF (blank pH 5.0), 24 hrs): 5.0
- pH ([2]; SGF (blank pH 1.8), 15 mins): 2.0
- pH ([2]; SGF (blank pH 1.8), 30 mins): 2.1
- pH ([2]; SGF (blank pH 1.8), 60 mins): 2.1
- pH ([2]; SGF (blank pH 1.8), 120 mins): 2.1
- pH ([2]; SGF (blank pH 1.8), 24 hrs): 2.2
- moisture uptake ([3]; listed as freeform Type D): ~5 wt %
